Measured values reported in patent publication US20260297080A1, “BICYCLIC COMPOUNDS AS CDK INHIBITORS” (BeOne Medicines I GmbH, priority 2022, published 2026).

Assays:
CDK2/Cyclin E1 = CDK2/Cyclin E1 (Homo sapiens, UniProt P24941); assay: CDK2/Cyclin E1 Biochemical Assay (TR-FRET), 0.060 mM ATP; details: 0.15 μM Rb (Ser780)-biotin substrate, pH7.0, 60 min preincubation, 120 min reaction, room temperature
Outline: (§1)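 TR-FRET readout: 665/620 nm ratio from Eu-cryptate anti-pRb(Ser780) antibody plus streptavidin-XL665, converted to % inhibition and fitted (4-parameter logistic) for IC50. Reactions used 0.15 μM biotinylated Rb (Ser780) substrate, compound 0–10 μM, 60 min enzyme–compound preincubation, then 120 min reaction at room temperature.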

CDK1/Cyclin B1 = CDK1/Cyclin B1 (Homo sapiens, UniProt P06493); assay: CDK1/Cyclin B1 Biochemical Assay (TR-FRET), 0.015 mM ATP; details: 0.15 μM Rb (Ser780)-biotin substrate, pH7.0, 60 min preincubation, 120 min reaction, room temperature
Outline: as §1

Chain of CDK1/Cyclin B1 (P06493 whole entry): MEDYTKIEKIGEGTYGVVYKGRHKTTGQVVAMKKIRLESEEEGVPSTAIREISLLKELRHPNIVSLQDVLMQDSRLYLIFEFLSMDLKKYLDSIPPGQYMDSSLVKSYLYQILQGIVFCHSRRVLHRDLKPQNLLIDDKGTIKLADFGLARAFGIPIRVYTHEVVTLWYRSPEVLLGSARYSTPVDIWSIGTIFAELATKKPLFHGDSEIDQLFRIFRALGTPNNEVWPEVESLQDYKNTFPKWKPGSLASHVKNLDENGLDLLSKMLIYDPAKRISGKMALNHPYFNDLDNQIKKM
Chain of CDK1/Cyclin B1 (P14635 whole entry partner): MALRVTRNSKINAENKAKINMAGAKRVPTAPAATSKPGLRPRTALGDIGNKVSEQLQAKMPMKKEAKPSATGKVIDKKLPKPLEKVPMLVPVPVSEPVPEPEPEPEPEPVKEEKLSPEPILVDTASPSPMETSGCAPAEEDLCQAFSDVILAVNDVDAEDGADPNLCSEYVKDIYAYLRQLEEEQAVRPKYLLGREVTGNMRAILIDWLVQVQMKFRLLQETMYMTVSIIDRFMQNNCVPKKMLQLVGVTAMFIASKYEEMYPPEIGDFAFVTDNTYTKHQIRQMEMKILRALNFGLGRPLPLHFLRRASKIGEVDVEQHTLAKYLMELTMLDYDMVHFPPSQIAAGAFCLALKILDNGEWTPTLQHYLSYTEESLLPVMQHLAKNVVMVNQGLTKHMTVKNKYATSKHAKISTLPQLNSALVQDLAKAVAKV

SMILES | IC50 (CDK2/Cyclin E1) | IC50 (CDK1/Cyclin B1)
O=C(NC1CCC(O)CC1)O[C@H]1CC[C@@H](c2cc(Nc3ccc4c(c3F)CNS4(=O)=O)n[nH]2)C1 (single isomer, unassigned) [Example 143, cis-3-(3-((4-fluoro-1,1-dioxido-2,3-dihydrobenzo[d]isothiazol-5-yl)amino)-1H-pyrazol-5-yl)cyclopentyl(4-hydroxycyclohexyl)carbamate] | 4.9 nM | 242 nM
CC(C)NC(=O)O[C@H]1CC[C@@H](c2cc(Nc3ccc4c(c3)C3(CC3)S(=O)(=O)N4C)n[nH]2)C1 (relative stereo) [Example 201, cis-3-(3-((1-methyl-2,2-dioxido-1H-spiro[benzo[c]isothiazole-3,l′-cyclopropan]-5-yl)amino-1H-pyrazol-5-yl)cyclopentyl isopropylcarbamate] | 11 nM | 130 nM
CC(C)NC(=O)O[C@H]1CC[C@@H](c2cc(Nc3ccc4c(c3F)S(=O)(=O)CC4)n[nH]2)C1 (relative stereo) [Example 314, cis-3-(3-((7-fluoro-1,1-dioxido-2,3-dihydrobenzo[b]thiophen-6-yl)amino)-1H-pyrazol-5-yl)cyclopentyl isopropylcarbamate] | 1.6 nM | 44 nM
CC(C)NC(=O)O[C@H]1CC[C@@H](c2cc(Nc3ccc4c(c3F)CN(C3CCN(C)C(=O)C3)S4(=O)=O)n[nH]2)C1 (relative stereo) [Example 100, cis-3-(3-((4-fluoro-2-(1-methyl-2-oxopiperidin-4-yl)-1,1-dioxido-2,3-dihydrobenzo[d]isothiazol-5-yl)amino)-1H-pyrazol-5-yl)cyclopentyl isopropylcarbamate] | 5.2 nM | 236 nM
CC(C)NC(=O)O[C@H]1CC[C@@H](c2cc(Nc3ccc4c(c3F)CN(Cc3ccccc3)S4(=O)=O)n[nH]2)C1 (relative stereo) [Example 75, cis-3-(3-((2-benzyl-4-fluoro-1,1-dioxido-2,3-dihydrobenzo[d]isothiazol-5-yl)amino)-1H-pyrazol-5-yl)cyclopentyl isopropylcarbamate] | 16 nM | 1080 nM
CC1(NC(=O)O[C@H]2CC[C@@H](c3cc(Nc4ccc5c(c4F)CS(=O)(=O)N5)n[nH]3)C2)CCOC1 (relative stereo) [Example 375, cis-3-(3-((4-fluoro-2,2-dioxido-1,3-dihydrobenzo[c]isothiazol-5-yl)amino)-1H-pyrazol-5-yl)cyclopentyl(3-methyltetrahydrofuran-3-yl)carbamate] | 4.6 nM | 95 nM
CC(C)NC(=O)O[C@H]1CC[C@@H](c2cc(Nc3cc4c(cc3F)CS(=O)(=O)N4)n[nH]2)C1 (relative stereo) [Example 310, cis-3-(3-((5-fluoro-2,2-dioxido-1,3-dihydrobenzo[c]isothiazol-6-yl)amino)-1H-pyrazol-5-yl)cyclopentyl isopropylcarbamate] | 81 nM | 2200 nM
CC(C)NC(=O)O[C@H]1CC[C@@H](c2cc(Nc3ccc4c(c3)S(=O)(=O)NC4(C)C)n[nH]2)C1 (relative stereo) [Example 4, cis-3-(5-((3,3-dimethyl-1,1-dioxido-2,3-dihydrobenzo[d]isothiazol-6-yl)amino)-1H-pyrazol-3-yl)cyclopentyl isopropylcarbamate] | 8.6 nM | 184 nM
CCCNC(=O)O[C@H]1CC[C@@H](c2cc(Nc3ccc4c(c3F)CN(C)S4(=O)=O)n[nH]2)C1 (single isomer, unassigned) [Example 122a, cis-3-(3-((4-fluoro-2-methyl-1,1-dioxido-2,3-dihydrobenzo[d]isothiazol-5-yl)amino)-1H-pyrazol-5-yl)cyclopentyl propylcarbamate] | 12 nM | 455 nM
[2H]C([2H])([2H])N1Cc2cc(Nc3cc([C@@H]4CC[C@H](OC(=O)NC(C)C)C4)[nH]n3)c(F)cc2S1(=O)=O (relative stereo) [Example 46, cis-3-(3-((6-fluoro-2-(methyl-d3)-1,1-dioxido-2,3-dihydrobenzo[d]isothiazol-5-yl)amino)-1H-pyrazol-5-yl)cyclopentyl isopropylcarbamate] | 230 nM | 4420 nM
CN1c2ccc(Nc3cc([C@@H]4CC[C@H](OC(=O)NC5(C)CC5)C4)[nH]n3)cc2CS1(=O)=O (relative stereo) [Example 223, cis-3-(3-((1-methyl-2,2-dioxido-1,3-dihydrobenzo[c]isothiazol-5-yl)amino)-1H-pyrazol-5-yl)cyclopentyl(1-methylcyclopropyl)carbamate] | 5.5 nM | 35 nM
CC(C)NC(=O)O[C@H]1CC[C@@H](c2cc(Nc3ccc4c(c3F)CN(CC3CN(S(C)(=O)=O)C3)S4(=O)=O)n[nH]2)C1 (relative stereo) [Example 326, cis-3-(3-((4-fluoro-2-((1-(methylsulfonyl)azetidin-3-yl)methyl)-1,1-dioxido-2,3-dihydrobenzo[d]isothiazol-5-yl)amino)-1H-pyrazol-5-yl)cyclopentyl isopropylcarbamate] | 6.6 nM | 290 nM
CC(C)NC(=O)O[C@H]1CC[C@@H](c2cc(Nc3ccc4c(c3F)C(CCO)S(=O)(=O)N4CCO)n[nH]2)C1 (relative stereo) [Example 253, cis-3-(3-((4-fluoro-1,3-bis(2-hydroxyethyl)-2,2-dioxido-1,3-dihydrobenzo[c]isothiazol-5-yl)amino)-1H-pyrazol-5-yl)cyclopentyl isopropylcarbamate] | 4.3 nM | 96 nM
CN1c2ccc(Nc3cc([C@@H]4CC[C@H](OC(=O)NCC(C)(C)O)C4)[nH]n3)cc2CS1(=O)=O (relative stereo) [Example 238, cis-3-(3-((1-methyl-2,2-dioxido-1,3-dihydrobenzo[c]isothiazol-5-yl)amino)-1H-pyrazol-5-yl)cyclopentyl(2-hydroxy-2-methylpropyl)carbamate] | 16 nM | 153 nM
C[C@H]1[C@H](O)CN1C(=O)O[C@H]1CC[C@@H](c2cc(Nc3ccc4c(c3F)CS(=O)(=O)N4C)n[nH]2)C1 (relative stereo) [Example 355, cis-3-(3-((4-fluoro-1-methyl-2,2-dioxido-1,3-dihydrobenzo[c]isothiazol-5-yl)amino)-1H-pyrazol-5-yl)cyclopentyl(2S,3R)-3-hydroxy-2-methylazetidine-1-carboxylate] | 19 nM | 361 nM
CCCNC(=O)O[C@H]1CC[C@@H](c2cc(Nc3ccc4c(c3)CS(=O)(=O)N4C)n[nH]2)C1 (relative stereo) [Example 221, cis-3-(3-((1-methyl-2,2-dioxido-1,3-dihydrobenzo[c]isothiazol-5-yl)amino)-1H-pyrazol-5-yl)cyclopentyl propylcarbamate] | 8.6 nM | 49 nM
O=C(NC1CCC1)O[C@H]1CC[C@@H](c2cc(Nc3ccc4c(c3F)CNS4(=O)=O)n[nH]2)C1 (relative stereo) [Example 157, cis-3-(3-((4-fluoro-1,1-dioxido-2,3-dihydrobenzo[d]isothiazol-5-yl)amino)-1H-pyrazol-5-yl)cyclopentyl cyclobutylcarbamate] | 15 nM | 240 nM

Second part, the compound after the results:

IC50 (CDK2/Cyclin E1) | IC50 (CDK1/Cyclin B1) | SMILES
0.7 nM | 23 nM | CC[C@H](C)NC(=O)O[C@H]1CC[C@@H](c2cc(Nc3ccc4c(c3F)CS(=O)(=O)N4C3COC3)n[nH]2)C1 (single isomer, unassigned) [Example 261b]
8.4 nM | 497 nM | CC(C)NC(=O)O[C@H]1CC[C@@H](c2cc(Nc3cc4c(cc3F)N(CCO)S(=O)(=O)C4)n[nH]2)C1 (single isomer, unassigned) [Example 296b, cis-3-(3-((6-fluoro-1-(2-hydroxyethyl)-2,2-dioxido-1,3-dihydrobenzo[c]isothiazol-5-yl)amino)-1H-pyrazol-5-yl)cyclopentyl isopropylcarbamate]
1.1 nM | 22 nM | CC1(NC(=O)O[C@H]2CC[C@@H](c3cc(Nc4ccc5c(c4F)CS(=O)(=O)N5CC(F)(F)F)n[nH]3)C2)CC1 (single isomer, unassigned) [Example 264b, cis-3-(3-((4-fluoro-2,2-dioxido-1-(2,2,2-trifluoroethyl)-1,3-dihydrobenzo[c]isothiazol-5-yl)amino)-1H-pyrazol-5-yl)cyclopentyl(1-methylcyclopropyl)carbamate]
1.3 nM | 26 nM | CC(C)NC(=O)O[C@H]1CC[C@@H](c2cc(Nc3ccc4c(c3)C(C)NS4(=O)=O)n[nH]2)C1 (single isomer, unassigned) [Example 321c, cis-3-(3-((3-methyl-1,1-dioxido-2,3-dihydrobenzo[d]isothiazol-5-yl)amino)-1H-pyrazol-5-yl)cyclopentyl isopropylcarbamate]
8.4 nM | 189 nM | CC1(NC(=O)O[C@H]2CC[C@@H](c3cc(Nc4ccc5c(c4F)CNS5(=O)=O)n[nH]3)C2)COC1 (single isomer, unassigned) [Example 164b, cis-3-(3-((4-fluoro-1,1-dioxido-2,3-dihydrobenzo[d]isothiazol-5-yl)amino)-1H-pyrazol-5-yl)cyclopentyl(3-methyloxetan-3-yl)carbamate]
1.6 nM | 70 nM | O=C(NC1CCC1)O[C@H]1CC[C@@H](c2cc(Nc3ccc4c(c3)CS(=O)(=O)N4)n[nH]2)C1 (single isomer, unassigned) [Example 380a, cis-3-(3-((2,2-dioxido-1,3-dihydrobenzo[c]isothiazol-5-yl)amino)-1H-pyrazol-5-yl)cyclopentyl cyclobutylcarbamate]
1.3 nM | 120 nM | CC[C@H](C)NC(=O)O[C@H]1CC[C@@H](c2cc(Nc3ccc4c(c3F)CN(C3COC3)S4(=O)=O)n[nH]2)C1 (single isomer, unassigned) [Example 134b]
